In patent US8952024B2, “Herbicidal pyrimidone derivatives” (E I du Pont de Nemours and Company, priority 2009, dated 2015):

Experiments:
Assay in all cases: Test B pre-/postemergence plant response
Assay type in all cases: in vivo
[1] = tested on: Surinam grass (Brachiaria decumbens)
Summary of the method: (§1)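 Plants treated either at seeding (loam/sand soil) or postemergence at 2 to 18 cm height, using a surfactant-containing non-phytotoxic solvent formulation. Evaluation was visual after 13 to 15 days, 0 to 100 scale relative to controls.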

[2] = tested on: sunflower (common oilseed sunflower, Helianthus annuus); details: Preemergence; for Sunflower plant response rating: 125 g ai/ha
Summary of the method: as §1

[3] = tested on: woolly cupgrass (Eriochloa villosa)
Summary of the method: as §1

[4] = tested on: yellow nutsedge (Cyperus esculentus)
Summary of the method: as §1

[5] = tested on: lambsquarters (Chenopodium album)
Summary of the method: as §1

[6] = tested on: cocklebur (Xanthium strumarium)
Summary of the method: as §1

[7] = tested on: nightshade (eastern black nightshade, Solanum ptycanthum); details: Preemergence; for Nightshade plant response rating: 125 g ai/ha
Summary of the method: as §1

[8] = tested on: large crabgrass (Digitaria sanguinalis)
Summary of the method: as §1

[9] = tested on: wild oat (Avena fatua)
Summary of the method: as §1

[10] = tested on: kochia (Kochia scoparia)
Summary of the method: as §1

[11] = tested on: galium (catchweed bedstraw, Galium aparine); details: Preemergence; for Galium plant response rating: 125 g ai/ha
Summary of the method: as §1

[12] = tested on: goosegrass (Eleusine indica); details: Preemergence, 62 g ai/ha; scale 0 to 100, 0 no effect, 100 complete control
[13] = 250 g ai/ha, Preemergence, 0 to 100 scale
[14] = Postemergence, 31 g ai/ha, scale 0 to 100 (0 no effect, 100 complete control)
[15] = Postemergence, 62 g ai/ha, scale 0 (no effect) to 100 (complete control), 13 to 15 days
[16] = Postemergence, 125 g ai/ha, visual rating after 13 to 15 days, scale 0 (no effect) to 100 (complete control)
[17] = Postemergence, 250 g ai/ha, scale 0 to 100
[18] = Preemergence, 31 g ai/ha, scale 0 to 100 (0 no effect, 100 complete control)
[19] = Preemergence, 62 g ai/ha, scale 0 to 100, 0 no effect, 100 complete control
[20] = Preemergence, 125 g ai/ha, 0 to 100 scale
[21] = 31 g ai/ha, scale 0 to 100 (0 no effect, 100 complete control)
[22] = 62 g ai/ha, scale 0 to 100, 0 no effect, 100 complete control

SMILES: O=C1CCCC([O-])=C1C(=O)c1cnc(-c2ccccc2)n(-c2ccccc2)c1=O.[K+] [Compound 14]
- Plant response rating, Surinam Grass [1, 13]: 80
- Plant response rating, Surinam Grass [1, 14]: 40
- Plant response rating, Surinam Grass [1, 15]: 50
- Plant response rating, Surinam Grass [1, 16]: 50
- Surinam Grass plant response rating [1, 17]: 55
- Plant response rating, Surinam Grass [1, 18]: 0
- Plant response rating, Surinam Grass [1, 19]: 5
- Surinam Grass plant response rating [1, 20]: 60
- Plant response rating, Sunflower ([2]; 250 g ai/ha, 0 to 100 scale): 98
- Plant response rating, Sunflower [2, 21]: 50
- Plant response rating, Sunflower [2, 22]: 85
- Sunflower plant response rating ([2]; 0 to 100 scale): 85
- Plant response rating, Cupgrass, Woolly [3, 13]: 70
- Plant response rating, Cupgrass, Woolly [3, 14]: 50
- Plant response rating, Cupgrass, Woolly [3, 15]: 80
- Plant response rating, Cupgrass, Woolly [3, 16]: 80
- Cupgrass, Woolly plant response rating [3, 17]: 80
- Plant response rating, Cupgrass, Woolly [3, 18]: 0
- Plant response rating, Cupgrass, Woolly [3, 19]: 5
- Cupgrass, Woolly plant response rating [3, 20]: 50
- Plant response rating, Nutsedge, Yellow [4, 13]: 85
- Plant response rating, Nutsedge, Yellow [4, 14]: 20
- Plant response rating, Nutsedge, Yellow [4, 15]: 30
- Plant response rating, Nutsedge, Yellow [4, 16]: 30
- Nutsedge, Yellow plant response rating [4, 17]: 50
- Plant response rating, Nutsedge, Yellow [4, 18]: 0
- Plant response rating, Nutsedge, Yellow [4, 19]: 30
- Nutsedge, Yellow plant response rating [4, 20]: 40
- Plant response rating, Lambsquarters [5, 13]: 100
- Plant response rating, Lambsquarters [5, 14]: 85
- Plant response rating, Lambsquarters [5, 15]: 85
- Plant response rating, Lambsquarters [5, 16]: 85
- Lambsquarters plant response rating [5, 17]: 85
- Plant response rating, Lambsquarters [5, 18]: 100
- Plant response rating, Lambsquarters [5, 19]: 100
- Lambsquarters plant response rating [5, 20]: 100
- Plant response rating, Cocklebur [6, 13]: 95
- Plant response rating, Cocklebur [6, 14]: 80
- Plant response rating, Cocklebur [6, 15]: 90
- Plant response rating, Cocklebur [6, 16]: 90
- Cocklebur plant response rating [6, 17]: 98
- Plant response rating, Cocklebur [6, 18]: 0
- Plant response rating, Cocklebur [6, 19]: 85
- Cocklebur plant response rating [6, 20]: 85
- Plant response rating, Nightshade ([7]; 250 g ai/ha, 0 to 100 scale): 100
- Plant response rating, Nightshade [7, 21]: 85
- Plant response rating, Nightshade [7, 22]: 98
- Nightshade plant response rating ([7]; 0 to 100 scale): 100
- Plant response rating, Crabgrass, Large [8, 13]: 100
- Plant response rating, Crabgrass, Large [8, 14]: 50
- Plant response rating, Crabgrass, Large [8, 15]: 55
- Plant response rating, Crabgrass, Large [8, 16]: 85
- Crabgrass, Large plant response rating [8, 17]: 85
- Plant response rating, Crabgrass, Large [8, 18]: 5
- Plant response rating, Crabgrass, Large [8, 19]: 50
- Crabgrass, Large plant response rating [8, 20]: 100
- Plant response rating, Oat, Wild [9, 13]: 0
- Plant response rating, Oat, Wild [9, 14]: 30
- Plant response rating, Oat, Wild [9, 15]: 40
- Plant response rating, Oat, Wild [9, 16]: 50
- Oat, Wild plant response rating [9, 17]: 50
- Plant response rating, Oat, Wild [9, 18]: 0
- Plant response rating, Oat, Wild [9, 19]: 0
- Oat, Wild plant response rating [9, 20]: 0
- Plant response rating, Kochia [10, 13]: 100
- Plant response rating, Kochia [10, 18]: 85
- Plant response rating, Kochia [10, 19]: 100
- Kochia plant response rating [10, 20]: 100
- Plant response rating, Galium ([11]; 250 g ai/ha, 0 to 100 scale): 80
- Plant response rating, Galium [11, 21]: 0
- Plant response rating, Galium [11, 22]: 0
- Galium plant response rating ([11]; 0 to 100 scale): 40
- Plant response rating, Goosegrass [12]: 85

SMILES: O=C1CCCC(O)=C1C(=O)c1cnc(-c2ccccc2)n(-c2ccc(F)cc2)c1=O [Compound 24]
- Plant response rating, Surinam Grass [1, 13]: 100
- Plant response rating, Surinam Grass [1, 14]: 50
- Plant response rating, Surinam Grass [1, 15]: 55
- Plant response rating, Surinam Grass [1, 16]: 60
- Surinam Grass plant response rating [1, 17]: 80
- Plant response rating, Surinam Grass [1, 18]: 65
- Plant response rating, Surinam Grass [1, 19]: 75
- Surinam Grass plant response rating [1, 20]: 95
- Plant response rating, Sunflower ([2]; 250 g ai/ha, 0 to 100 scale): 98
- Plant response rating, Sunflower [2, 21]: 85
- Plant response rating, Sunflower [2, 22]: 90
- Sunflower plant response rating ([2]; 0 to 100 scale): 95
- Plant response rating, Cupgrass, Woolly [3, 13]: 90
- Plant response rating, Cupgrass, Woolly [3, 14]: 80
- Plant response rating, Cupgrass, Woolly [3, 15]: 80
- Plant response rating, Cupgrass, Woolly [3, 16]: 95
- Cupgrass, Woolly plant response rating [3, 17]: 95
- Plant response rating, Cupgrass, Woolly [3, 18]: 5
- Plant response rating, Cupgrass, Woolly [3, 19]: 70
- Cupgrass, Woolly plant response rating [3, 20]: 85
- Plant response rating, Nutsedge, Yellow [4, 13]: 90
- Plant response rating, Nutsedge, Yellow [4, 14]: 20
- Plant response rating, Nutsedge, Yellow [4, 15]: 30
- Plant response rating, Nutsedge, Yellow [4, 16]: 30
- Nutsedge, Yellow plant response rating [4, 17]: 70
- Plant response rating, Nutsedge, Yellow [4, 18]: 30
- Plant response rating, Nutsedge, Yellow [4, 19]: 50
- Nutsedge, Yellow plant response rating [4, 20]: 85
- Plant response rating, Lambsquarters [5, 13]: 100
- Plant response rating, Lambsquarters [5, 14]: 90
- Plant response rating, Lambsquarters [5, 15]: 90
- Plant response rating, Lambsquarters [5, 16]: 90
- Lambsquarters plant response rating [5, 17]: 100
- Plant response rating, Lambsquarters [5, 18]: 98
- Plant response rating, Lambsquarters [5, 19]: 100
- Lambsquarters plant response rating [5, 20]: 100
- Plant response rating, Cocklebur [6, 13]: 95
- Plant response rating, Cocklebur [6, 14]: 90
- Plant response rating, Cocklebur [6, 15]: 98
- Plant response rating, Cocklebur [6, 16]: 98
- Cocklebur plant response rating [6, 17]: 100
- Plant response rating, Cocklebur [6, 18]: 10
- Cocklebur plant response rating [6, 20]: 95
- Plant response rating, Nightshade ([7]; 250 g ai/ha, 0 to 100 scale): 100
- Plant response rating, Nightshade [7, 21]: 90
- Plant response rating, Nightshade [7, 22]: 98
- Nightshade plant response rating ([7]; 0 to 100 scale): 100
- Plant response rating, Crabgrass, Large [8, 13]: 100
- Plant response rating, Crabgrass, Large [8, 14]: 70
- Plant response rating, Crabgrass, Large [8, 15]: 75
- Plant response rating, Crabgrass, Large [8, 16]: 95
- Crabgrass, Large plant response rating [8, 17]: 100
- Plant response rating, Crabgrass, Large [8, 18]: 90
- Plant response rating, Crabgrass, Large [8, 19]: 98
- Crabgrass, Large plant response rating [8, 20]: 100
- Plant response rating, Oat, Wild [9, 13]: 80
- Plant response rating, Oat, Wild [9, 14]: 40
- Plant response rating, Oat, Wild [9, 15]: 50
- Plant response rating, Oat, Wild [9, 16]: 60
- Oat, Wild plant response rating [9, 17]: 80
- Plant response rating, Oat, Wild [9, 18]: 0
- Plant response rating, Oat, Wild [9, 19]: 0
- Oat, Wild plant response rating [9, 20]: 0
- Plant response rating, Kochia [10, 13]: 100
- Plant response rating, Kochia [10, 14]: 70
- Plant response rating, Kochia [10, 15]: 70
- Plant response rating, Kochia [10, 16]: 80
- Kochia plant response rating [10, 17]: 100
- Plant response rating, Kochia [10, 18]: 100
- Plant response rating, Kochia [10, 19]: 100
- Kochia plant response rating [10, 20]: 100
- Plant response rating, Galium ([11]; 250 g ai/ha, 0 to 100 scale): 80
- Plant response rating, Galium [11, 21]: 0
- Plant response rating, Galium [11, 22]: 0
- Galium plant response rating ([11]; 0 to 100 scale): 10
- Plant response rating, Goosegrass [12]: 98
